Assay results from the supplement of paper PMC10307832.

Experiments:
Assay in all cases: relative viability (nuclei count vs DMSO), 5 days (fraction); higher = more cells survive
[1] = compound: C1CNCCC1C2=CC(=NN2)C3=CC=NC=C3 + Cc1nc(NC(=O)N2CCC[C@H]2C(N)=O)sc1-c1ccnc(C(C)(C)C(F)(F)F)c1 [Alpelisib] (partner 2 µM)
How it was run: (§1)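 Relative viability equals treated-well nuclei counts divided by vehicle-well nuclei counts. Counts came from 4× images of lung cancer cell lines grown in 1536-well plates for 5 days after pin-tool dosing on the day after seeding. Dosing used one drug alone or a fixed anchor-drug dose plus five library-drug doses (not always all listed) in √10 steps, and values are medians of duplicate plates.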

[2] = compound: O[C@H]1CC[C@H](Nc2ncc3nc(Nc4c(F)cc(F)cc4F)n([C@H]4CCOC4)c3n2)CC1 [Tanzisertib] + NC(=O)Nc1cc(-c2cccc(F)c2)sc1C(=O)N[C@H]1CCCNC1 [AZD7762] (partner 0.2 µM)
How it was run: as §1

[3] = compound: O[C@H]1CC[C@H](Nc2ncc3nc(Nc4c(F)cc(F)cc4F)n([C@H]4CCOC4)c3n2)CC1 [Tanzisertib] + CC1(C)CCC(c2ccc(Cl)cc2)=C(CN2CCN(c3ccc(C(=O)NS(=O)(=O)c4ccc(N[C@H](CCN5CCOCC5)CSc5ccccc5)c(S(=O)(=O)C(F)(F)F)c4)cc3)CC2)C1 [Navitoclax] (partner 0.5 µM)
How it was run: as §1

[4] = compound: C[C@@H](N)c1ccc(C(=O)Nc2ccnc3[nH]ccc23)cc1 + Cc1cc(Nc2cc(N3CCN(C)CC3)nc(Sc3ccc(NC(=O)C4CC4)cc3)n2)n[nH]1 [Tozasertib] (partner 0.1 µM)
How it was run: as §1

Cell Line	relative viability ([1]; first compound 0.08 µM)	relative viability ([1]; first compound 0.8 µM)	relative viability ([1]; first compound 2.53 µM)	relative viability ([1]; first compound 8 µM)	relative viability ([2]; first compound 0.08 µM)	relative viability ([2]; first compound 0.253 µM)	relative viability ([2]; first compound 0.8 µM)	relative viability ([2]; first compound 2.53 µM)	relative viability ([2]; first compound 8 µM)	relative viability ([3]; first compound 0.08 µM)	relative viability ([3]; first compound 0.253 µM)	relative viability ([3]; first compound 0.8 µM)	relative viability ([3]; first compound 2.53 µM)	relative viability ([3]; first compound 8 µM)	relative viability ([4]; first compound 0.04 µM)	relative viability ([4]; first compound 0.1265 µM)	relative viability ([4]; first compound 0.4 µM)	relative viability ([4]; first compound 1.265 µM)	relative viability ([4]; first compound 4 µM)
NCI-H727	0.478	0.552	0.542	0.524	0.59	0.652	0.524	0.544	0.599	0.377	0.354	0.481	0.477	0.502	0.654	0.746	0.66	0.602	0.544
HARA	0.821	0.811	0.898	0.82	0.288	0.358	0.337	0.286	0.275	1.13	1.18	1.13	1.14	1.22	–	0.101	0.0806	–	0.087
NCI-H2228	0.769	0.872	0.851	0.617	–	–	–	–	–	0.985	1.06	1.07	1.04	0.742	0.252	0.315	0.267	0.299	0.228
LCLC-97TM1	0.224	0.205	0.241	0.225	0.302	0.334	0.207	0.264	0.151	–	0.53	0.38	0.394	0.462	0.208	0.227	0.34	0.343	0.279
LC-2-ad	0.791	0.751	0.913	0.934	0.839	0.898	0.867	0.833	0.676	0.549	0.441	0.548	0.534	0.507	0.469	0.523	0.512	–	0.441
SK-LU-1	1.08	1.06	1.05	0.942	–	–	–	–	–	0.834	0.748	0.759	1.25	0.8	0.34	0.333	0.372	0.289	0.311
EKVX	0.738	0.573	1.03	0.818	0.68	0.795	0.612	0.65	0.535	0.95	0.923	0.96	0.91	0.861	0.421	0.379	0.494	0.44	0.438
HCC-827	0.97	0.668	0.916	0.972	0.206	0.227	0.19	0.164	0.147	0.961	1.01	1.11	1	0.742	0.449	0.445	0.447	0.411	0.412
NCI-H650	0.86	1.08	1.22	0.997	1.03	1.32	1.01	1.3	0.489	–	–	–	–	–	–	0.665	0.775	0.644	0.588
CAL-12T	0.929	1.56	1.51	1.28	0.606	0.79	0.623	0.636	0.647	1.21	1.18	1.37	1.37	1.34	0.366	0.392	0.413	0.443	0.283
NCI-H2342	–	–	–	–	0.416	0.633	0.515	0.477	0.41	–	–	–	–	–	0.496	0.382	0.493	0.495	0.525
SW 900	–	–	–	–	–	0.646	0.603	0.727	0.423	–	–	–	–	–	0.551	0.561	0.551	0.663	0.714
IA-LM	0.834	0.763	0.762	0.837	–	–	–	–	–	0.814	0.622	0.691	0.963	1.1	–	–	–	–	–
EPLC-272H	0.99	0.774	0.953	0.983	0.352	0.324	0.175	0.175	0.176	1.33	1.14	0.971	1.17	1.04	0.304	0.322	0.531	0.287	0.188
A-427	1.05	1.04	1.07	1.06	0.756	0.766	0.885	0.705	0.662	0.952	0.938	1.01	0.86	0.958	0.26	0.185	0.237	–	0.22
NCI-H647	0.969	1.12	1.31	1.22	0.675	0.549	0.546	0.534	0.18	1.11	1.18	1.22	1.3	0.943	0.322	0.227	0.426	0.324	0.303
NCI-H1975	0.667	0.622	0.58	0.629	0.697	0.794	0.752	0.653	0.54	1.28	1.09	1.21	1.29	1.03	0.8	0.712	0.729	0.696	0.642
NCI-H358	0.588	0.831	0.839	0.845	0.468	0.494	0.695	0.453	0.387	–	–	–	–	–	0.111	0.109	0.0968	0.105	0.0998
PC-3 [JPC-3]	1	1.03	1.05	1.02	0.81	0.937	0.844	0.733	0.679	0.898	0.815	0.866	0.81	0.853	0.892	0.839	0.955	0.967	0.816
